For 24 compounds, EC50 results are on record in patent US11001564B2, “Substituted chromane-8-carboxamide compounds and analogues thereof, and methods using same” (priority 2016, dated 2021).

Usually EC50 stands for the midpoint of the concentration-response curve.

Where a name gives a salt, the structure may show the parent alone.

The test system of the first test is HBV rcDNA in HepDE19 cells. The experiment in a line: HepDE19 assay with bDNA quantitation of HBV rcDNA. The format is cell-based, hepatitis B virus (HBV). To be noted: HepDE19 cells, 7 day incubation, rcDNA by Quantigene 2.0 bDNA assay; read-out: DE-19 bDNA EC50. In a few lines:
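HepG2-derived HepDE19 cells, switched to Tet-free medium, were exposed 7 days at 37 °C to compound (8-point ½-log series from 25 μM, 0.5% DMSO). HBV rcDNA measured by bDNA assay with HBV-specific probes; EC50/EC90 by 4-parameter fit. CC50 from CellTiter-Glo ATP on replicate plates after 4 days.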
As to `O=C(N[C@H]1CCOc2c(C(=O)Nc3ccc(F)c(F)c3)cccc21)OCC1CCNC1` (single isomer, unassigned) [Compound 109], the EC50 amounted to 21 µM.

The same test, now with this note: Hepatitis B virus, HepDE19, 168 h, HepDE19 cells, 7 day incubation, rcDNA by Quantigene 2.0 bDNA assay; read-out: DE-19 bDNA EC50.
Regarding `C[C@@H](OC1CCOc2c(C(=O)Nc3ccc(F)c(F)c3)cccc21)c1ccncc1` (stereo partly drawn) [Compound 96, N-(3,4-difluorophenyl)-4-((R)-1-(pyridin-4-yl)ethoxy)chromane-8-carboxamide], the EC50 was found to be 15 µM.
Consider `COCC(=O)N[C@H]1CCOc2c(C(=O)Nc3ccc(F)c(C)c3)ccc(F)c21` [Compound 129, (4S)-5-Fluoro-N-(4-fluoro-3-methylphenyl)-4-(2-methoxyacetamido)-3,4-dihydro-2H-1-benzopyran-8-carboxamide], for which the EC50 was determined as 2.5 µM.
The same measure, in the same setting: the figure for `CC(=O)N1CC(COC(=O)N[C@H]2CCOc3c(C(=O)Nc4ccc(F)c(C)c4)ccc(F)c32)C1` [Compound 161, (1-Acetylazetidin-3-yl)methyl (S)-(5-fluoro-8-((4-fluoro-3-methylphenyl)carbamoyl)chroman-4-yl)carbamate] is 0.85 µM.
With `NC(=O)NC1CCOc2c(C(=O)Nc3ccc(F)c(F)c3)cccc21` (stereo not drawn) [Compound 34, N-(3,4-Difluorophenyl)-4-ureidochromane-8-carboxamide], the half-maximal effective concentration (EC50) is 4.7 µM.
For the compound `Cn1nccc1CN[C@H]1CCOc2c(C(=O)Nc3ccc(F)c(F)c3)cccc21` [Compound 101], the concentration for a half-maximal effect (EC50) worked out at 21 µM.
With `COC(=O)N[C@H]1CCOc2c(C(=O)Nc3cccc(Cl)c3)cccc21` [Compound 37, Methyl (S)-(8-((3-chlorophenyl)carbamoyl)chroman-4-yl)carbamate], the concentration for a half-maximal effect (EC50) is 2.8 µM.
On the same count and under the same terms, the figure for `COc1cnc(N[C@H]2CCOc3c(C(=O)Nc4ccc(F)c(F)c4)cccc32)nc1` [Compound 55, (S)—N-(3,4-Difluorophenyl)-4-((5-methoxypyrimidin-2-yl)amino)chromane-8-carboxamide] is 2 µM.
For the compound `O=C(N[C@H]1CCOc2c(C(=O)Nc3ccc(F)c(F)c3)ccc(Cl)c21)OCc1ccccn1` [Compound 134, Pyridin-2-ylmethyl (S)-(5-chloro-8-((3,4-difluorophenyl)carbamoyl)chroman-4-yl)carbamate], the EC50 was 1.3 µM.
Consider `O=C(N[C@H]1CCOc2c(C(=O)Nc3ccc(F)c(F)c3)cccc21)c1ccncc1` [Compound 16], for which the EC50 was found to be 13 µM.
Still for that read-out and setting: next, `O=C1C[C@@H](COC(=O)N[C@H]2CCOc3c(C(=O)Nc4ccc(F)c(Cl)c4)ccc(F)c32)N1` [Compound 154, ((S)-4-Oxoazetidin-2-yl)methyl ((S)-8-((3-chloro-4-fluorophenyl)carbamoyl)-5-fluorochroman-4-yl)carbamate]: 1.1 µM.

Still in this test, the particulars now being: Hepatitis B virus, HepDE19, 168 h, read-out: DE-19 bDNA EC50, HepDE19 cells, 7 day incubation, rcDNA by Quantigene 2.0 bDNA assay.
As to `COCCOC(=O)N[C@H]1CCOc2c(C(=O)Nc3ccc(F)c(F)c3)cccc21` [Compound 22, 2-Methoxyethyl (8-((3,4-difluorophenyl)carbamoyl)chroman-4-yl) carbamate], the EC50 was found to be 4.7 µM.
Consider `O=C(N[C@H]1CCOc2c(C(=O)Nc3ccc(F)c(Cl)c3)ccc(F)c21)OCC1CCN(C(=O)CO)CC1` [Compound 164, (1-(2-Hydroxyacetyl)piperidin-4-yl)methyl (S)-(8-((3-chloro-4-fluorophenyl)carbamoyl)-5-fluorochroman-4-yl)carbamate], for which the concentration for a half-maximal effect (EC50) was determined as 0.68 µM.
Same read-out and setting: next, `COC(=O)N[C@H]1CCOc2c(C(=O)Nc3cccc(C(F)(F)F)c3)cccc21` [Compound 49]: 11 µM.
For `O=C(N[C@H]1CCOc2c(C(=O)Nc3ccc(F)c(F)c3)cccc21)OCc1cc(Cl)ccn1` [Compound 82, (4-Chloropyridin-2-yl)methyl (S)-(8-((3,4-difluorophenyl)carbamoyl)chroman-4-yl)carbamate hydrochloride], the EC50 stood at 3.2 µM.
Still for that read-out and setting: next, `O=C(N[C@@H]1CCSc2c(C(=O)Nc3ccc(F)c(F)c3)ccc(F)c21)OCc1ccccn1` [Compound 170, Pyridin-2-ylmethyl (R)-(8-((3,4-difluorophenyl)carbamoyl)-5-fluorothiochroman-4-yl)carbamate hydrochloride]: 21 µM; `COc1cccc(COC(=O)N[C@H]2CCOc3c(C(=O)Nc4ccc(F)c(F)c4)cccc32)n1` [Compound 111, (6-Methoxypyridin-2-yl)methyl (S)-(8-((3,4-difluorophenyl)carbamoyl)chroman-4-yl)carbamate hydrochloride]: 2.7 µM; `COC(=O)N[C@@H]1CCOc2c(C(=O)Nc3ccc(F)c(F)c3)cccc21` [Compound 11, methyl (R)-(8-((3,4-difluorophenyl)carbamoyl)chroman-4-yl)carbamate]: 21 µM.
Still for that read-out and setting: next, `CNC(=O)N[C@H]1CCOc2c(C(=O)Nc3ccc(F)c(C)c3)ccc(F)c21` [Compound 122, (S)-5-fluoro-N-(4-fluoro-3-methylphenyl)-4-(3-methylureido)chromane-8-carboxamide]: 0.32 µM.
For `O=C(N[C@H]1CCOc2c(C(=O)Nc3ccc(F)c(Cl)c3)cccc21)OCc1ccccn1` [Compound 51, Pyridin-2-ylmethyl (S)-(8-((3-chloro-4-fluorophenyl)carbamoyl)chroman-4-yl)carbamate hydrochloride], the concentration giving a half-maximal response (EC50) is 1.2 µM.
On the same count and under the same terms, next, `CCOC(=O)N[C@H]1CCOc2c(C(=O)Nc3ccc(F)c(F)c3)cccc21` [Compound 18, Ethyl (8-((3,4-difluorophenyl)carbamoyl)chroman-4-yl)carbamate]: 6.6 µM.
The same measure, in the same setting: next, `CN(C)S(=O)(=O)N1CCC(COC(=O)N[C@H]2CCOc3c(C(=O)Nc4ccc(F)c(Cl)c4)ccc(F)c32)CC1` [Compound 163, (1-(N,N-dimethylsulfamoyl)piperidin-4-yl)methyl (S)-(8-((3-chloro-4-fluorophenyl)carbamoyl)-5-fluorochroman-4-yl)carbamate]: 1 µM; `CCCOC(=O)N[C@H]1CCOc2c(C(=O)Nc3ccc(F)c(F)c3)cccc21` [Compound 21, Propyl (8-((3,4-difluorophenyl)carbamoyl)chroman-4-yl)carbamate]: 22 µM.

The same test, now with this note: read-out: DE-19 bDNA EC50; HepDE19 cells, 7 day incubation, rcDNA by Quantigene 2.0 bDNA assay.
In the case of `COC(=O)NC1CCN(C)c2c(C(=O)Nc3ccc(F)c(Cl)c3)cccc21` (single isomer, unassigned) [Compound 179, Methyl (8-((3-chloro-4-fluorophenyl)carbamoyl)-1-methyl-1,2,3,4-tetrahydroquinolin-4-yl)carbamate], the EC50 is 0.94 µM.
